For data set [1], the system named is LPA-induced increase in urethral pressure. The experiment in a line: Inhibitory action on LPA-induced increase in urethral pressure in rats under anesthesia. It is filed as in vivo, rat (male Wistar). To be noted: Rattus norvegicus, 5 min; 0.1 mg/kg intravenous, LPA (1-oleoyl) 3 mg/kg iv after 5 minutes, anesthetized rats, vs solvent; read-out: Inhibitory rate. Here is the method: Inhibitory Action of Compound of Formula (I) on LPA-Induced Increase in Urethral Pressure in Rats Under Anesthesia (with Intravenous Administration at 0.1 mg/kg) Male Wistar rats (Charles River, 9- to 12-week old) were anesthetized with urethane (1.2 g/kg ip), and held in the supine position on an operating table kept at 37° C. The lower abdominal portion was midline-incised and the bladder was thus exposed. A small portion of the bladder apex was incised, a microchip pressure transducer (Millar) was inserted antegrade, and then placed in the urethra, and the urethral pressure was recorded continuously. In addition, a cannula for administration of a drug was placed into the femoral vein. After about 1 hour of stabilization, the compound of formula (I) (0.1 mg/kg) was administered intravenously. After 5 minutes, LPA (1-oleoyl) was administered intravenously at 3 mg/kg, and the changes in the urethral pressure were recorded. The inhibitory rates (%) of the compound of the formula (I) on the LPA-stimulated increase in the urethral pressure compared with those after administration of the solvent of the compound of the formula (I) were recorded.

Data set [2] is described as follows: Estimation of concentration in plasma after oral administration in rats using ex vivo bioassay method. As to conditions: male, Wistar, rat, 2 hours after oral administration, estimated by ex vivo bioassay from standard curve. Here is the method:
Estimation of Concentration in Plasma (2 Hours after Oral Administration) after Administration of Compound of Formula (I) in Rats Using Ex Vivo Bioassay Method
The concentration in the plasma after administration of the compound of the formula (I) in rats was estimated according to a bioassay method. That is, test compounds were orally administered to male Wistar rats (Charles River, 6-week old, and fasted), and after a certain period of time, blood was collected from the ophthalmic basilar plexus to give plasma. The compound was extracted from the plasma, and the extracted compound was dissolved in a certain amount of DMSO. Further, for the standard curve, the plasma in which the compounds at various concentrations had been dissolved was prepared separately, and the same extraction procedure was conducted.
The inhibitory action on the LPA-stimulated increase in the intracellular calcium ion concentration in LPA1-expressing cells in the DMSO extract was measured, and the plasma concentration in the individual after administration was estimated from the standard curve.

The target of data set [3] is T1, human LPA1 (Homo sapiens, UniProt Q92633).
T1 construct: expressed in transfected cells
T1 sequence (Q92633 whole entry): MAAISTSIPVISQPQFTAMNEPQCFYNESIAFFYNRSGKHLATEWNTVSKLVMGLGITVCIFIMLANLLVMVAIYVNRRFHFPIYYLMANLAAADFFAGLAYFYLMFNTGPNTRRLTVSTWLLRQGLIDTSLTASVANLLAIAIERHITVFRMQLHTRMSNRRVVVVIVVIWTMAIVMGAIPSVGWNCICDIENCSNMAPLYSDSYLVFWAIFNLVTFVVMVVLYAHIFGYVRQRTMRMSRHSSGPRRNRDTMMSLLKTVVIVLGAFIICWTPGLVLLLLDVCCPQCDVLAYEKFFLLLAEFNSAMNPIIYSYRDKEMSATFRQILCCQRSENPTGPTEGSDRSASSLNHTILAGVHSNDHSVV
The data set is described as follows: Antagonistic action on human LPA1: inhibition of LPA-stimulated increase in intracellular calcium ion concentration in human LPA1-CHO cells. It is filed as cell-based. As to conditions: LPA 100 nM, Fluo-4/FLIPR calcium signal. Here is the method: Antagonistic Action of Compound of Formula (I) on Human LPA1
The antagonistic action on a human LPA 1 was evaluated with an index of an inhibitory action on the LPA-stimulated increase in intracellular calcium ion concentration, using human LPA 1-CHO cells [cells in which human LPA1 receptors are stably expressed in CHO (dhfr gene-deficient) cell lines].
Establishment of human LPA1-CHO cells was performed based on the basic genetic engineering techniques.
The established cells were maintained by passage in a nucleic acid-free α-MEM medium (Invitrogen) containing 10% FBS, 1% penicillin/streptomycin (Invitrogen), and 100 nM methotrexate, and before experiment, the medium was replaced with a medium that had been reduced to 1% of the […] concentration, then seeded in 96-well plates to 1.5×10e^5 cells/100 μL/well, and incubated overnight.
On the day of experiment, a 0.5 μM Fluo-4 solution [a solution prepared by adding 20 mM HEPES (Sigma), […] probenecid (Nacalai Tesque), 0.05% BSA, 0.5 μM Fluo-4 AM (Dojindo Laboratories), and 0.1% Pluronic […] (Molecular Probe Co.) to a Hanks Balanced Solt Solution (Invitrogen)] was added to the cells, and Fluo-4 was loaded on the cells by incubating for 2 hours at room temperature.
After loading Fluo-4, the Fluo-4 solution was replaced with a reaction solution [a solution obtained by adding 20 mM HEPES, […] probenecid, and 0.05% BSA to a Hanks Balanced Solt Solution], and then measurement was performed using a device for measuring an intracellular calcium concentration (FLIPR tetra, Molecular Devices Inc.).
A reaction solution in which the compound of the formula (I) (with a final concentration of 0.1 nM to 10 μM) had been dissolved was added to each of the wells, the signals were measured over time for 4 minutes, then a reaction solution in which LPA (final concentration 100 nM) had been dissolved was added thereto, and the signals were measured over time for 2 minutes. The difference between the maximum and minimum response during one minute from addition of LPA was calculated. The inhibitory activity was calculated, with a response when LPA only (not including the compound) was added was taken as 0% inhibition, and a response when a reaction solution not including both of the compound and LPA was added was taken as 100% inhibition. Then the 50% inhibitory concentration was calculated as an IC50 value (nM).
Human LPA1-CHO cells used in the present test were the cells with the same sequence as described in the pamphlet of International Publication WO 99/19513 were used. Further, Ex represents Example No. as denoted below.
Background: Calcium assays in cells follow changes in intracellular calcium, usually with a dye or a luminescent sensor.

Regarding `CCNS(=O)(=O)NC(=O)c1csc(CN(CCCc2ccccc2)C(=O)c2cc(OC)c(C)c(OC)c2)n1` [Example 71], the melting point lay within 143 to 144 °C. In addition, in data set [1], the inhibition in vivo at 0.1 mg/kg is 18%. For the same compound, the concentration at 2 h in data set [2] is 2.1 µM. Also, the 50% inhibitory concentration (IC50) in data set [3] stood at 16 nM.
On to `COc1cc(OC)cc(C(=O)N(CCCc2ccccc2)Cc2nc(C(=O)NS(C)(=O)=O)c(Cl)s2)c1` [Example 145], for which the melting point lay within 113 to 114 °C. The inhibition in vivo at 0.1 mg/kg in data set [1] was 16%. Besides, the concentration at 2 h in data set [2] is 5.6 µM. Also, the IC50 in data set [3] was 23 nM.
`CCc1c(OC)cc(C(=O)N(CCCc2ccccc2)Cc2nc(C(=O)NS(=O)(=O)NC)c(C)s2)cc1OC` [Example 153] displayed a melting point of 162 to 164 °C. Also, the inhibition in vivo at 0.1 mg/kg in data set [1] was 21%. In data set [2], the concentration at 2 h was 5.2 µM. Also, the IC50 in data set [3] stood at 21 nM.

In general, melting point refers to the temperature of the solid-liquid transition. A word on the IC50: it is the point on the concentration scale where inhibition reaches its midpoint.
